Reference: patent publication US4605658A (priority 1983, dated 1986)
Converted amounts (≈) assume the structure as drawn. Like-named read-outs stand apart in the source and are kept apart here.

What was measured:
[1] = tested on: Coxsackie virus-B4; assay: Test 2: antiviral activity, Coxsackie virus-B4 in HeLa cells; assay type: cell-based; conditions: Table 3
[2] = tested on: Sindbis virus; assay: microbe, parasite or virus in culture; assay type: cell-based; conditions: Vero
[3] = Test 3: cytotoxicity, HeLa cells; assay type: cell-based; conditions: human, Table 4, read-out: Minimum cytotoxic concentration (MCC)
Protocol: (§1) A further test was effected to determine the cytotoxicity of the chemical compounds of Table 1. Cell cultures were incubated with varying concentrations of the esters, during a time period equal to the period required for measuring antiviral activity. The compounds (S)-DHPA and (RS)-DHPA were used for comparative purposes. For each compound, the minimum cytotoxic concentration (MCC) was measured, that is the concentration required to cause a microscopically detectable alteration of normal cell morphology, when incubated with the cells in this way.

[4] = tested on: Reo virus-1; assay: Test 2: antiviral activity, reo virus-1 in Vero cells; assay type: cell-based; conditions: Reo virus-1, Vero cells; Table 3
[5] = Test 3: cytotoxicity, PRK cells; assay type: cell-based; conditions: rabbit, Table 4, read-out: Minimum cytotoxic concentration (MCC)
Protocol: as §1

[6] = tested on: Parainfluenza-virus-3; assay: microbe, parasite or virus in culture; assay type: cell-based; conditions: Vero
[7] = tested on: Measles virus; assay: microbe, parasite or virus in culture; assay type: cell-based; conditions: Measles morbillivirus, Vero
[8] = Test 3: cytotoxicity, Vero cells; assay type: cell-based, green monkey; conditions: monkey, Table 4, read-out: Minimum cytotoxic concentration (MCC)
Protocol: as §1

[9] = tested on: Vesicular stomatitis virus; assay type: cell-based; conditions: ratio of MCC (PRK cells) to MIC50 (vesicular stomatitis virus)
[10] = tested on: Sindbis; assay: Test 1: inhibition of virus cytopathic effect, Sindbis in Vero B cells; assay type: cell-based; conditions: Table 2, read-out: MIC50
Protocol: The antiviral properties of the esters prepared in Example 1 was explored in a variety of cell cultures and with a variety of DNA and RNA viruses such as listed in Table 2. The cells of each cell culture were inoculated with a certain virus in a dose of about 100 CCID50, that is about 100 times the dose needed to infect 50 percent of the cells. One hour after inoculation, the celss were washed with Eagle's nutrient medium and an ester of Example 1 was added in a dose varying from zero to 300 ug/ml and sometimes to more than 400 ug/ml. The compound (S)-DHPA was used in a comparative experiment. […] The cytopathic effect itself was measured in control experiments with virus-infected cell cultures without any added chemical compound and recorded as soon as it reached completion (Method of L. J. Rosenthal and I. L. Schechmaister in "Tissue Culture", p. 510, Academic Press, New York, 1973).
The results are shown in Table 2, wherein the abbreviations have the following meaning: PRK: primary culture of rabbit kidney cells; Vero: continuous line of green monkey kidney cells, HeLa: epithelial line of human cervical carcinoma cells.

[11] = tested on: Reovirus 1; assay: Test 1: inhibition of virus cytopathic effect, reovirus 1 in Vero B cells; assay type: cell-based; conditions: Mammalian orthoreovirus 1; Reovirus 1, Vero B cells; Table 2; read-out: MIC50
[12] = tested on: Herpes simplex 1 (KOS); assay: Test 1: inhibition of virus cytopathic effect, herpes simplex 1 (KOS) in PRK cells; assay type: cell-based; conditions: Table 2, read-out: MIC50
[13] = tested on: Vesicular stomatitis; assay: microbe, parasite or virus in culture; assay type: cell-based; conditions: PRK, read-out: MIC50
[14] = tested on: Parainfluenza; assay: microbe, parasite or virus in culture; assay type: cell-based; conditions: Vero B; read-out: MIC50
[15] = tested on: Polio 1; assay: microbe, parasite or virus in culture; assay type: cell-based; conditions: HeLa, read-out: MIC50
[16] = tested on: Measles; assay: microbe, parasite or virus in culture; assay type: cell-based; conditions: Measles morbillivirus, Vero; read-out: MIC50
[17] = tested on: Vaccinia; assay: microbe, parasite or virus in culture; assay type: cell-based; conditions: Orthopoxvirus vaccinia, PRK, read-out: MIC50
[18] = tested on: DNA and RNA viruses; conditions: known DHPA and related derivatives; cited from earlier work

CCCCOC(=O)C(O)Cn1cnc2c(N)ncnc21 (racemic) [Compound 5]
EC50 [1]: > 400 µg/mL | EC50 [2]: 150 µg/mL (≈ 537 µM) | MCC [3]: 400 µg/mL | EC50 [4]: 150 µg/mL (≈ 537 µM) | MCC [5]: 200 µg/mL | EC50 [6]: 70 µg/mL (≈ 251 µM) | EC50 [7]: 25 µg/mL (≈ 89.5 µM) | MCC [8]: 200 µg/mL

CC(C)CCOC(=O)C(O)Cn1cnc2c(N)ncnc21 (racemic) [Compound 8]
EC50 [1]: > 400 µg/mL | EC50 [2]: 200 µg/mL (≈ 682 µM) | antiviral index [9]: higher than 100 -fold | MCC [3]: 400 µg/mL | EC50 [4]: 30 µg/mL (≈ 102 µM) | MCC [5]: 400 µg/mL | EC50 [6]: 200 µg/mL (≈ 682 µM) | EC50 [7]: 12 µg/mL (≈ 40.9 µM) | MCC [8]: 400 µg/mL

CCOC(=O)[C@@H](O)Cn1cnc2c(N)ncnc21 [C2 H5 (S)]
EC50 [10]: > 400 µg/mL | EC50 [11]: 70 µg/mL (≈ 279 µM) | EC50 [12]: > 400 µg/mL | EC50 [13]: 1.5 µg/mL (≈ 5.97 µM) | EC50 [14]: 100 µg/mL (≈ 398 µM) | EC50 [15]: > 400 µg/mL | EC50 [16]: 100 µg/mL (≈ 398 µM) | EC50 [17]: 7 µg/mL (≈ 27.9 µM)

Nc1ncnc2c1ncn2C[C@H](O)CO [(S)--DHPA, 9-(2,3-dihydroxypropyl)adenine, reference compound]
EC50 [1]: > 400 µg/mL | EC50 [2]: > 400 µg/mL | antiviral activity (in words) [18]: antivirally active | EC50 [10]: > 400 µg/mL | EC50 [11]: 70 µg/mL (≈ 335 µM) | EC50 [12]: > 400 µg/mL | EC50 [13]: 30 µg/mL (≈ 143 µM) | EC50 [15]: > 400 µg/mL | MCC [3]: > 400 µg/mL | EC50 [4]: 200 µg/mL (≈ 956 µM) | MCC [5]: > 400 µg/mL | EC50 [6]: 20 µg/mL (≈ 95.6 µM) | EC50 [16]: 70 µg/mL (≈ 335 µM) | EC50 [7]: 30 µg/mL (≈ 143 µM) | MCC [8]: > 400 µg/mL | EC50 [17]: 70 µg/mL (≈ 335 µM)

CCCCCCCCOC(=O)C(O)Cn1cnc2c(N)ncnc21 (racemic) [Compound 9]
EC50 [1]: > 100 µg/mL | EC50 [2]: 30 µg/mL (≈ 89.4 µM) | MCC [3]: 100 µg/mL | EC50 [4]: 7 µg/mL (≈ 20.9 µM) | MCC [5]: 100 µg/mL | EC50 [6]: 15 µg/mL (≈ 44.7 µM) | EC50 [7]: 70 µg/mL (≈ 209 µM) | MCC [8]: 200 µg/mL

CCC(C)OC(=O)C(O)Cn1cnc2c(N)ncnc21 (racemic) [Compound 6]
EC50 [1]: > 400 µg/mL | EC50 [2]: 300 µg/mL (≈ 1070 µM) | antiviral index [9]: higher than 100 -fold | antiviral index ([9]; listed as 2-butyl): higher than 400 -fold | MCC [3]: > 400 µg/mL | EC50 [4]: 70 µg/mL (≈ 251 µM) | MCC [5]: > 400 µg/mL | EC50 [6]: 200 µg/mL (≈ 716 µM) | EC50 [7]: 40 µg/mL (≈ 143 µM) | MCC [8]: > 400 µg/mL

CC(C)OC(=O)C(O)Cn1cnc2c(N)ncnc21 (racemic) [Compound 4]
EC50 [1]: > 400 µg/mL | EC50 [2]: > 400 µg/mL | antiviral index [9]: higher than 100 -fold | MCC [3]: > 400 µg/mL | EC50 [4]: 40 µg/mL (≈ 151 µM) | MCC [5]: > 400 µg/mL | EC50 [6]: 70 µg/mL (≈ 264 µM) | EC50 [7]: 150 µg/mL (≈ 565 µM) | MCC [8]: > 400 µg/mL

Nc1ncnc2c1ncn2CC(O)C(=O)OC1CCCCC1 (racemic) [Compound 11]
EC50 [1]: > 100 µg/mL | EC50 [2]: > 100 µg/mL | MCC [3]: 100 µg/mL | EC50 [4]: 7 µg/mL (≈ 22.9 µM) | MCC [5]: 100 µg/mL | EC50 [6]: > 40 µg/mL | EC50 [7]: 15 µg/mL (≈ 49.1 µM) | MCC [8]: 100 µg/mL

COC(=O)[C@H](O)Cn1cnc2c(N)ncnc21 [CH3 (R), methylester of 3-(adenin-9-yl)-2-hydroxypropanoic acid]
EC50 [10]: > 400 µg/mL | EC50 [11]: 70 µg/mL (≈ 295 µM) | EC50 [12]: > 400 µg/mL | EC50 [13]: 1.5 µg/mL (≈ 6.32 µM) | EC50 [14]: 200 µg/mL (≈ 843 µM) | EC50 [15]: > 400 µg/mL | EC50 [16]: 15 µg/mL (≈ 63.2 µM) | EC50 [17]: 15 µg/mL (≈ 63.2 µM)

COCCOC(=O)C(O)Cn1cnc2c(N)ncnc21 (racemic) [Compound 10]
EC50 [1]: > 400 µg/mL | EC50 [2]: > 400 µg/mL | MCC [3]: > 400 µg/mL | EC50 [4]: 70 µg/mL (≈ 249 µM) | MCC [5]: > 400 µg/mL | EC50 [6]: 300 µg/mL (≈ 1070 µM) | EC50 [7]: 400 µg/mL (≈ 1420 µM) | MCC [8]: > 400 µg/mL

Nc1ncnc2c1ncn2C[C@@H](O)CO [DHPA R-enantiomeric form, 9-(2,3-dihydroxypropyl)adenine]
antiviral activity (in words) [18]: rather inactive

COC(=O)[C@@H](O)Cn1cnc2c(N)ncnc21 [CH3 (S), methylester of 3-(adenin-9-yl)-2-hydroxypropanoic acid]
EC50 [10]: > 400 µg/mL | EC50 [11]: 300 µg/mL (≈ 1260 µM) | EC50 [12]: > 400 µg/mL | EC50 [13]: 7 µg/mL (≈ 29.5 µM) | EC50 [14]: 100 µg/mL (≈ 422 µM) | EC50 [15]: > 400 µg/mL | EC50 [16]: 70 µg/mL (≈ 295 µM) | EC50 [17]: 20 µg/mL (≈ 84.3 µM)

Nc1ncnc2c1ncn2CC(O)CO (racemic) [(RS)--DHPA, 9-(2,3-dihydroxypropyl)adenine, reference compound]
EC50 [1]: > 400 µg/mL | EC50 [2]: > 400 µg/mL | antiviral activity (in words) [18]: antivirally active | MCC [3]: > 400 µg/mL | EC50 [4]: 100 µg/mL (≈ 478 µM) | MCC [5]: > 400 µg/mL | EC50 [6]: 20 µg/mL (≈ 95.6 µM) | EC50 [7]: 20 µg/mL (≈ 95.6 µM) | MCC [8]: > 400 µg/mL

CCOC(=O)C(O)Cn1cnc2c(N)ncnc21 (racemic) [Compound 2]
EC50 [1]: > 400 µg/mL | EC50 [2]: > 400 µg/mL | antiviral index [9]: higher than 100 -fold | antiviral index ([9]; listed as racemic ethyl): higher than 400 -fold | MCC [3]: > 400 µg/mL | EC50 [4]: 40 µg/mL (≈ 159 µM) | MCC [5]: > 400 µg/mL | EC50 [6]: 20 µg/mL (≈ 79.6 µM) | EC50 [7]: 20 µg/mL (≈ 79.6 µM) | MCC [8]: > 400 µg/mL

CC(C)COC(=O)C(O)Cn1cnc2c(N)ncnc21 (racemic) [Compound 7]
EC50 [1]: > 400 µg/mL | EC50 [2]: > 400 µg/mL | antiviral index [9]: higher than 100 -fold | antiviral index ([9]; listed as 2-methylpropyl): higher than 400 -fold | MCC [3]: > 400 µg/mL | EC50 [4]: 150 µg/mL (≈ 537 µM) | MCC [5]: > 400 µg/mL | EC50 [6]: 20 µg/mL (≈ 71.6 µM) | EC50 [7]: 40 µg/mL (≈ 143 µM) | MCC [8]: > 400 µg/mL

CCCOC(=O)C(O)Cn1cnc2c(N)ncnc21 (racemic) [Compound 3]
EC50 [1]: > 400 µg/mL | EC50 [2]: > 200 µg/mL | MCC [3]: 400 µg/mL | EC50 [4]: 200 µg/mL (≈ 754 µM) | MCC [5]: 100 µg/mL | EC50 [6]: 100 µg/mL (≈ 377 µM) | EC50 [7]: 100 µg/mL (≈ 377 µM) | MCC [8]: 400 µg/mL
